From patent US6903135B2, “Methods and products related to 16-HETE analogs” (Board of Regents, The University of Texas System, priority 1998, dated 2005) come the findings set out here.

Marks after values point to notes of the source that are not given here.

Common to all, as to format: cell-based
For assay [1], the system named is neutrophils in diluted human blood. Description: fMLP-induced neutrophil aggregation in diluted human blood. Particulars: for Aggregation (percent of inhibition from HETE untreated cells): 1 µM compound, N = 4; for inhibition of neutrophil aggregation: no concentration given. As to the method: (§1) Stimulated neutrophil aggregation and oxygen free radical release were examined in whole human blood using a whole-blood aggregometer-chemiluminometer (Chronolog, Haverton, Pa.) as described in Bednar et al. J. Thromb. Thrombol. 1, 179-185 (1995). Briefly, blood samples containing heparin (1 U/ml) as the anticoagulant were diluted in HBSS in proportion 1 to 9. Diluted blood aliquots (1 ml) were stirred (400 rpm) in a prewarmed (37° C.) siliconized cuvette containing cytochalasin b (5 μg/ml) and luminol (in 8 μl DMSO, 500 μM final concentration) and the test HETE (concentration 0.01 to 10 μM) for 10 min. Neutrophils were stimulated with a submaximal dose of fMLP (5×10^−7M final concentration). The aggregation and chemiluminescence were simultaneously measured as changes of impedance and luminescence, respectively. The fMLP-induced chemiluminescence was calculated as the peak height of the reaction.
The methods were performed as described above in Example 3.

Assay [2] has the same test system. Described as above. The following applies: 1 mM [sic] HETE, fMLP 5×10^−7 M, N = 3 to 4.
The subject of assay [3] is LTB4 synthesis in neutrophils. The assay can be described thus: Neutrophil LTB4 production stimulated by fMLP. Particulars: 1 μM, 10 min preincubation, fMLP 5×10^−7 M; fMLP alone 92.8±27.1, unstimulated 49.9±24.2; n=4. The procedure:
16(R)-HETE (0.01-1.0 μM) was preincubated for 10 minutes with the neutrophil suspension (3×10^6/ml) prior to the addition of formyl-methionyl-leucyl-phenylalanine (fMLP). Samples were then incubated for an additional 10 minutes with 5×10^−7M fMLP. All incubations took place at 37° C. Plasma samples for the measurement of LTB4 were collected by centrifugation of the whole blood samples at 1200 rpm for 15 minutes. Samples were stored at […] until analyzed. The plasma was then acidified to pH3 with 1M Hcl. The plasma was then placed on C2 reverse phase columns (Amprep for Amersham Corp., Arlington Heights, Ill.) to extract LTB4. LTB4 was then measured using the Biotrak LTB4 enzyme immunoassay system (Amersham Corp., Arlington Heights, Ill.). All standards and samples were performed in duplicate. Following incubation, all samples were read at 450 nm and the LTB4 concentration in each sample was determined following the generation of a standard curve. LTB4 concentration was expressed as picograms LTB4 per 1000 neutrophils.

Assay [4] concerns neutrophils in diluted human blood. Description: fMLP-stimulated oxygen free radical release (luminol chemiluminescence) in diluted human blood. The following applies: for OFR Release (percent of inhibition from HETE untreated cells): 1 mM [sic] HETE, fMLP 5×10^−7 M, chemiluminescence, N = 3 to 4. As to the method: as §1, with “Diluted blood aliquots (1 ml) were stirred (400 rpm) in a prewarmed (37° C.) siliconized cuvette containing cytochalasin b (5 μg/ml) and luminol (in 8 μl DMSO, 500 μM final concentration) and the test HETE (concentration 0.01 to 10 μM) for 10 min.” left out

Assay [5] deals with platelets. The assay can be described thus: ADP-induced platelet aggregation in diluted whole blood. Particulars: 1 μM, ten minute incubation, ADP 5 μM, n=3, mean±sem. The source says:
(§2) Platelet aggregation was examined in diluted whole blood using a Chronolog whole blood aggregometer (Havertown, Pa.) as previously described (Bednar, M. M.; Dooley, R. H.; Zamani, M.; Howard, D. B.; and Gross, C. E. Neutrophil and platelet activity and quantification following delayed t-PA therapy in a rabbit model of thromboembolic stroke. J. Thromb. Thrombol. 1:179-185 (1995). Briefly, whole blood was collected in 3.8% sodium citrate (9:1, v/v) and was subsequently diluted 50:50 with normal saline. Aggregation was assessed over a 6 minute interval following addition of a submaximal concentration of adenosine diphosphate (ADP, 5 μM: Sigma Corporation, St. Louis, Mo.). Aggregation was then repeated following a ten minute incubation with either 1 μM or 16(R)-HETE or 16(S)-HETE and expressed as the change in impedance as a percentage of the baseline value. Adenosine triphosphate (ATP) release was simultaneously measured from ADP-stimulated platelets in the Chronolog whole blood aggregometer using the Chrono-Lume luminescent agent (firefly luciferin-luciferase). Samples were compared to chemiluminescence obtained from ATP standards following the addition of luciferin-luciferase.

A further assay deals with basal human neutrophils. Description: Basal neutrophil adhesion to gelatin matrix. As to the method: (§3) Venous blood (60-70 ml) was collected from four healthy, normal volunteers into syringes containing heparin (1 U/ml). Polymorphonuclear leukocytes (PMNs) were isolated by a histopaque density gradient technique as previously described in Liu et al., Adhesion, Its role in Inflammatory Disease, Freeman and Co., New York, 1992, pp 189-192. Briefly, blood aliquots (6 ml) were layered over two layers (3 ml) of histopaque 1077 and 1119 in a conical centrifuge tube. The sample was then subjected to centrifugation at 100×g for 30 minutes at room temperature and the top layer, containing the neutrophils, was carefully collected. Hypotonic lysis was used to separate out the red blood cells. The neutrophils were then isolated from the sample by centrifugation (2000×g) and suspended in Hanks balanced salt solution (HBSS) containing 1 mM Ca^+ and 0.8 mM Mg^+ for studies involving arachidonic acid metabolism, and in M199 (with 1% BSA) for neutrophil adhesion assays. Total cells were counted using a hemocytometer and leukocytes were counted after staining with Wright-Giemsa stain. For each experiment, the cell preparations used contain ≧97% neutrophils, having ≧95% viability as determined by a trypan blue exclusion assay.
(§4) Isolated neutrophils were resuspended in M199 containing 1% BSA with a final concentration of 3×10^6 cells per ml. Cells suspensions (1 ml) were incubated with or without a test compound, 16(S)-HETE, 16(R)-HETE, or 20-HETE (concentrations 0.01 to 10 μM) for 10 min and then placed into gelatin-coated wells and further incubated for 20 min at 37° C. The wells were washed three times with 0.5 ml of solution M199 to remove non-adherent cells. The adherent cells were then removed by addition of 0.4 ml of 0.25% trypsin-EDTA in 0.1 M PBS to the gelatin-coated wells and incubation for 10 min at 37° C. The incubates were transferred and the wells were washed with 0.1 ml of M199 solution. The amount of cells in combined solutions was counted. In some experiments, the adhesion of neutrophils was stimulated by addition of 1 U/ml of thrombin to neutrophil suspension immediately prior to the transfer of cells to the wells. Experiments were performed in duplicates for each concentration of HETE. The inhibition of adhesion was expressed as percent of cells remaining in suspension (non-adherent) relative to control. The range of adherent PMNs in control incubations was 6 to 23%. This was increased two-fold in the presence of thrombin.

The test system of assay [6] is platelets. The assay can be described thus: ATP release from ADP-stimulated platelets. The following applies: 1 μM, ADP 5 μM, n=3, mean±sem.
From the text: as §2

Assay [7] relates to thrombin-stimulated human neutrophils. The assay can be described thus: Thrombin-stimulated neutrophil adhesion to gelatin matrix. The procedure: as §3
as §4, with “In some experiments, the adhesion of neutrophils was stimulated by addition of 1 U/ml of thrombin to neutrophil suspension immediately prior to the transfer of cells to the wells. Experiments were performed in duplicates for each concentration of HETE.” left out, “The range of adherent PMNs in control incubations was 6 to 23%. This was increased two-fold in the presence of thrombin.” left out

For another assay, the system named is human neutrophils. Description: Agonist activity on human neutrophils. The following applies: concentrations ≦20 μM.
Where [8] appears, read: concentrations of one micromolar, four observations per compound.

Take `CCCC[C@@H](O)/C=C\CCCCCCC/C=C\CCCC(=O)O` [8,9,11,12-tetrahydro-16(R)-HETE]: the “Aggregation (percent of inhibition from HETE untreated cells)” value in assay [1] was 71.1 +/− 10.3* percent.
On to `CCCC[C@@H](O)C=CCC=CCC=CCC=CCCCC(=O)O` [16(R)-HETE, 16(R)-hydroxy-5,8,11,14-eicosatetraenoic acid], for which the “Aggregation (percent of inhibition from HETE untreated cells)” value in assay [2] and in [1] was 42.0 ± 11.0% in each case. Further, in assay [1] (Homo sapiens, Neutrophil, fMLP 5×10^−7 M, read-out: IC50, inhibition of fMLP-induced neutrophil aggregation), the IC50 came out at 1200 nM. Also, the “inhibition of fMLP-induced neutrophil aggregation” value in [1] (setting [8]) is on record as “inhibited”. In [3], this compound came in with an LTB4 synthesis of 17.0±3.2 pg/1000 neutrophils. In addition, the “OFR Release (percent of inhibition from HETE untreated cells)” value in assay [4] is reported as 8.9 ± 5.1%. For the same compound, the “ADP-induced platelet aggregation, % of the control value” with platelets [5] was 85.9±21.4%. The inhibition at 1 µM stood at 73 ± 11% in the assay with basal human neutrophils (Homo sapiens, Neutrophil, 1 μM, 10 min preincubation, unstimulated neutrophils, gelatin matrix) and 50 ± 4% in [7] (Homo sapiens, Neutrophil, 1 μM, thrombin 1 U/ml, 3×10^6 cells/ml). Further, the “inhibition of neutrophil adhesion to gelatin” value in the assay with basal human neutrophils (preincubation with 10 μM) was “completely inhibited”. Further, the “ATP release from ADP-stimulated platelets, % of the control sample” value in the assay with platelets [6] is recorded as 99.3±0.7%.
For the compound `CCCCC(O)/C=C\C/C=C\C/C=C\C/C=C\CCCC(=O)NS(C)(=O)=O` [16(R)-HETE sulfonimide, N-methylsulfonyl-16-hydroxyeicosa-5,8,11,14-(Z)-tetraenamide], the “Aggregation (percent of inhibition from HETE untreated cells)” value in [1] is listed as 47.6 +/− 20.5* percent. Besides, the “inhibition of fMLP-induced neutrophil aggregation” value in [1] (setting [8]) is recorded as “slightly lower activity than 16-HETE (R)”.
On to “5,6,14,15-Dehydro-8,9,11,12-tetrahydro-16(R)-HETE”, for which the “Aggregation (percent of inhibition from HETE untreated cells)” value in assay [1] is recorded as 79.4 +/− 12.2%.
For `CCCCC[C@H](O)/C=C/C=C\C/C=C\C/C=C\CCCC(=O)O` [15-HETE], the “inhibition of neutrophil aggregation” value in assay [1] was “neither 20-HETE nor 15-HETE inhibited”.
`O=C(O)CCC/C=C\C/C=C\C/C=C\C/C=C\CCCCCO` [20-HETE]: in assay [2], the “Aggregation (percent of inhibition from HETE untreated cells)” value is 8.1 ± 2.6%. For the same compound, the “inhibition of fMLP-induced neutrophil aggregation” value in [1] (concentrations of ≦10 μM) is “not active”. Further, the “activity in assay of neutrophil aggregation” value in assay [1] (concentrations up to 1 μM) is listed as “no activity”. In addition, the “inhibition of neutrophil aggregation” value in assay [1] was “neither 20-HETE nor 15-HETE inhibited”. Further, the “OFR Release (percent of inhibition from HETE untreated cells)” value in assay [4] came to 3.9 ± 13.4%. In [4] (concentrations up to 1 μM), the “activity in assay of luminol chemiluminescence” value is “no activity”. Moreover, in the assay with human neutrophils, the “agonist activity on human neutrophils” value is reported as “no detectable agonist activity”. Further, the “activity in assay of neutrophil adhesion” value with basal human neutrophils (concentrations up to 1 μM) is reported as “no activity”. Also, the “inhibition of neutrophil adhesion, basal conditions” value with basal human neutrophils (concentrations ≦10 μM) is on record as “did not inhibit”. Further, the “inhibition of neutrophil adhesion, stimulated conditions” value in [7] (concentrations ≦10 μM) is “did not inhibit”.
For the compound `CCCC[C@H](O)/C=C\C/C=C\C/C=C\C/C=C\CCCC(=O)O` [16(S)-HETE], the “Aggregation (percent of inhibition from HETE untreated cells)” value in assay [2] turned out to be 7.0 ± 3.5%. For the same compound, the “inhibition of fMLP-induced neutrophil aggregation” value in assay [1] (concentrations of ≦10 μM) is “not active”. For the same compound, the “OFR Release (percent of inhibition from HETE untreated cells)” value in [4] came to 5.6 ± 16.7%. In addition, the “ADP-induced platelet aggregation, % of the control value” in the assay on platelets [5] was determined as 101.3±14.0%. Besides, the “inhibition of basal neutrophil adhesion” value in the assay with basal human neutrophils (1 μM, 10 min preincubation, unstimulated neutrophils, gelatin matrix) stood at 39±8%. Also, the “ATP release from ADP-stimulated platelets, % of the control sample” value in the assay on platelets [6] came to 108.0±6.8%. In assay [7] (1 μM, thrombin 1 U/ml, 3×10^6 cells/ml), the “inhibition of thrombin-stimulated neutrophil adhesion” value is given as 40±14%.
With C(1)-hydroxyl 16-HETE, the “Aggregation (percent of inhibition from HETE untreated cells)” value in assay [1] is on record as 84.6 +/− 11.4%.
As to `CCCC[C@@H](O)CCCCCCCCCCCCCCC(=O)O` [5,6,8,9,11,12,14,15-octahydro-16(R)-HETE], in assay [1], the “Aggregation (percent of inhibition from HETE untreated cells)” value is recorded as 122.8 +/− 15.4%.
